Data as given in ChEMBL document CHEMBL6182936, “Discovery of KDX1381, a Bivalent CK2α Inhibitor for the Treatment of Solid Tumors as a Single Agent or in Combination” (J Med Chem, 2025).
≈ marks a conversion by molar mass, not a printed value. Calls of active or inactive are those of the source. No cut-off for these calls is given here.

Legend:
786-0 [1] = assay: cells; settings: Homo sapiens, 786-0, 72 h
A-375 = settings: Homo sapiens, dose 5-40 mg/kg, route ip
786-0 [2] = settings: Homo sapiens, dose 20.0 mg/kg, route po, time 28.0 day
786-0 [3] = assay: cells; settings: Homo sapiens, 786-0, 72 h, read-out: Activity
HCT-116 = assay: cells; settings: Homo sapiens, HCT-116, 72 h, read-out: Activity
786-0 [4] = assay: cells; settings: Homo sapiens, 786-0, 72 h, read-out: Activity; remark: listed apart in the source
786-0 [5] = assay: cells; settings: Homo sapiens, 786-0, 72 h, read-out: Activity; remark: listed apart in the source
in vivo [6] = settings: CD-1, mouse, iv, 1 mg/kg
in vivo [7] = settings: CD-1, mouse, iv, 1 mg/kg; remark: listed apart in the source
in vivo [8] = settings: CD-1, mouse, iv, 1 mg/kg; remark: listed apart in the source
in vivo [9] = settings: CD-1, mouse, ip, 40 mg/kg
in vivo [10] = settings: CD-1, mouse, ip, 40 mg/kg; remark: listed apart in the source
in vivo [11] = settings: CD-1, mouse, ip, 40 mg/kg; remark: listed apart in the source
in vivo [12] = settings: CD-1, mouse, ip, 40 mg/kg; remark: listed apart in the source
in vitro = settings: mouse, hepatocytes
physchem [13] = settings: PBS buffer, pH 7.4
physchem [14] = settings: PBS buffer, pH 7.4; remark: listed apart in the source
physchem [15] = settings: FaSSIF, pH 6.5
physchem [16] = settings: NCl, pH 1.2
786-0 [17] = assay: animal or person; settings: Mus musculus, 786-0, 384 h, read-out: TGI
Hep 3B2 [18] = assay: animal or person; settings: Mus musculus, Hep3B, po, read-out: TGI
Hep 3B2 [19] = assay: animal or person; settings: Mus musculus, Hep3B, po, read-out: TGI; remark: listed apart in the source
animal or person [20] = settings: Homo sapiens, SF767, po, 1152 h, read-out: TGI
animal or person [21] = settings: Homo sapiens, SF767, po, 1152 h, read-out: TGI; remark: listed apart in the source
786-0 [22] = assay: cells; settings: Homo sapiens, 786-0, 72 h, read-out: Activity; remark: listed apart in the source
Hep 3B2 [23] = assay: animal or person; settings: Mus musculus, Hep3B, po, read-out: TGI; remark: listed apart in the source
786-0 [24] = assay: cells; settings: Homo sapiens
SK-BR-3 [25] = assay: cells; settings: Homo sapiens
786-0 [26] = assay: cells; settings: Homo sapiens; remark: listed apart in the source
SK-BR-3 [27] = assay: cells; settings: Homo sapiens; remark: listed apart in the source
physchem [28] = assay: physchem
animal or person [29] = settings: Homo sapiens, SF767, po, 1152 h, read-out: TGI; remark: listed apart in the source

CC(=O)c1[nH]c2ccc(F)cc2c1-c1cn(CC2CCN(CCNS(=O)(=O)c3ccc(-c4cccc5ccsc45)cc3)CC2)nn1
IC50 (786-0 [1]): > 10 µM

COc1ccccc1-c1ccc(S(=O)(=O)NCCN2CCC(Cn3cc(-c4c(C(C)=O)[nH]c5ccc(F)cc45)nn3)CC2)cc1C
IC50 (786-0 [1]): 2.9 µM

CC(=O)c1[nH]c2ccc(F)cc2c1-c1cn(CC2CCN(CCNS(=O)(=O)c3ccc(-c4c(O)cccc4F)cc3)CC2)nn1
TGI (A-375): Active | TGI (786-0 [2]): Active | IC50 (786-0 [1]): 0.8 µM | viability at 10 µM (786-0 [3]): 12.7% | viability at 10 µM (HCT-116): 85.1% | viability at 1 µM (786-0 [4]): 90.4% | viability at 1 µM (786-0 [5]): 25% | clearance at 24 h (in vivo [6]): 60.5 mL/min/kg | Vd at 24 h (in vivo [7]): 5.9 L/kg | half-life at 24 h (in vivo [8]): 1.13 h | AUC(0-inf) at 24 h (in vivo [9]): 8640 ng·h/mL | Cmax at 24 h (in vivo [10]): 2700 ng/mL | Tmax at 24 h (in vivo [11]): 1.33 h | bioavailability at 24 h (in vivo [12]): > 100% | remaining at 0.5 h (in vitro): 42% | solubility at 24 h (physchem [13]): 10.7 µg/mL (≈ 16.9 µM) | solubility (physchem [14]): 1.7 µg/mL (≈ 2.68 µM) | solubility (physchem [15]): > 100 µg/mL | solubility (physchem [16]): 28.2 µg/mL (≈ 44.4 µM) | inhibition in vivo at 40 mg/kg (786-0 [17]): 90% | inhibition in vivo at 30 mg/kg (Hep 3B2 [18]): 95% | inhibition in vivo at 30 mg/kg (Hep 3B2 [19]): 74% | inhibition in vivo at 40 mg/kg (animal or person [20]): 77% | inhibition in vivo at 40 mg/kg (animal or person [21]): 103%

CC(=O)c1[nH]c2ccc(F)cc2c1-c1cn(CC2CCN(CCNS(=O)(=O)c3ccc(-c4c(O)cccc4Cl)cc3)CC2)nn1
IC50 (786-0 [1]): 3.3 µM | solubility at 24 h (physchem [13]): < 0.5 µg/mL

CC(=O)c1[nH]c2ccc(F)cc2c1-c1cn(CC2CCN(CCNS(=O)(=O)c3ccc(-c4c(O)cccc4F)c(C(F)(F)F)c3)CC2)nn1
IC50 (786-0 [1]): 3.6 µM | remaining at 0.5 h (in vitro): < 10% | solubility at 24 h (physchem [13]): 1.1 µg/mL (≈ 1.57 µM)

CCOC(=O)c1[nH]c2ccc(F)cc2c1-c1cn(CC2CCN(CCNS(=O)(=O)c3ccc(CC(C)C)cc3)CC2)nn1
IC50 (786-0 [1]): > 10 µM | remaining at 0.5 h (in vitro): < 10% | solubility at 24 h (physchem [13]): < 0.5 µg/mL

COc1cccc(OC)c1-c1ccc(S(=O)(=O)NCCN2CCC(Cn3cc(-c4c(C(C)=O)[nH]c5ccc(F)cc45)nn3)CC2)cc1C
IC50 (786-0 [1]): 1.7 µM | remaining at 0.5 h (in vitro): 44% | solubility at 24 h (physchem [13]): 1.9 µg/mL (≈ 2.82 µM)

CC(C)Cc1ccc(S(=O)(=O)NCCN2CCC(Cn3cc(-c4c(C(=O)C(C)C)[nH]c5ccc(F)cc45)nn3)CC2)cc1
IC50 (786-0 [1]): > 10 µM | remaining at 0.5 h (in vitro): 15% | solubility at 24 h (physchem [13]): 0.9 µg/mL (≈ 1.48 µM)

CC(C)Cc1ccc(S(=O)(=O)NCCN2CCC(Cn3cc(-c4c[nH]c5ccc(F)cc45)nn3)CC2)cc1
IC50 (786-0 [1]): 6.8 µM | remaining at 0.5 h (in vitro): 25% | solubility at 24 h (physchem [13]): 1.5 µg/mL (≈ 2.78 µM)

COc1cc(S(=O)(=O)NCCN2CCC(Cn3cc(-c4c(C(C)=O)[nH]c5ccc(F)cc45)nn3)CC2)ccc1-c1c(O)cccc1F
IC50 (786-0 [1]): > 10 µM | remaining at 0.5 h (in vitro): 39% | solubility at 24 h (physchem [13]): 3.2 µg/mL (≈ 4.81 µM)

CC(=O)c1[nH]c2ccc(F)cc2c1-c1cn(CC2CCN(CCNS(=O)(=O)c3ccc(CC(C)C)cc3)CC2)nn1
IC50 (786-0 [1]): 3.2 µM | remaining at 0.5 h (in vitro): 53% | solubility at 24 h (physchem [13]): 10.4 µg/mL (≈ 17.9 µM)

CC(C)Cc1ccc(S(=O)(=O)NCCN2CCC(Cn3cc(-c4c(C(=O)C5CC5)[nH]c5ccc(F)cc45)nn3)CC2)cc1
IC50 (786-0 [1]): > 10 µM | solubility at 24 h (physchem [13]): < 0.5 µg/mL

CC(=O)c1[nH]c2ccc(F)cc2c1-c1cn(CC2CCN(CCNS(=O)(=O)c3ccc(-c4c(O)cccc4F)c(C#N)c3)CC2)nn1
solubility at 24 h (physchem [13]): 25.5 µg/mL (≈ 38.7 µM)

CSc1ccccc1-c1ccc(S(=O)(=O)NCCN2CCC(Cn3cc(-c4c(C(C)=O)[nH]c5ccc(F)cc45)nn3)CC2)cc1C
IC50 (786-0 [1]): > 10 µM | remaining at 0.5 h (in vitro): 26% | solubility at 24 h (physchem [13]): < 0.5 µg/mL

CC(=O)c1[nH]c2ccc(F)cc2c1-c1cn(CC2CCN(CCNS(=O)(=O)c3ccc(-c4c(F)cccc4C(F)(F)F)cc3)CC2)nn1
IC50 (786-0 [1]): > 10 µM | solubility at 24 h (physchem [13]): < 0.5 µg/mL

CNC(=O)c1cc(Oc2ccc(NC(=O)Nc3ccc(Cl)c(C(F)(F)F)c3)cc2)ccn1 [SORAFENIB]
viability at 4.5 µM (786-0 [22]): 88% | inhibition in vivo at 40 mg/kg (Hep 3B2 [23]): 29%

O=C(O)c1ccc2c(c1)nc(Nc1cccc(Cl)c1)c1ccncc12 [SILMITASERTIB]
viability at 10 µM (786-0 [3]): 93.5% | viability at 10 µM (HCT-116): 69.2%

COc1cccc(OC)c1-c1ccc(S(=O)(=O)NCCN2CCC(Cn3cc(-c4c(C(C)=O)[nH]c5ccc(F)cc45)nn3)CC2)cc1
IC50 (786-0 [1]): > 10 µM | remaining at 0.5 h (in vitro): 67% | solubility at 24 h (physchem [13]): 8 µg/mL (≈ 12.1 µM)

CC(C)COC(=O)c1[nH]c2ccc(F)cc2c1-c1cn(CC2CCN(CCNS(=O)(=O)c3ccc(CC(C)C)cc3)CC2)nn1
IC50 (786-0 [24]): 14.8 µM | IC50 (SK-BR-3 [25]): 8.9 µM | IC50 (786-0 [26]): 14.8 µM | IC50 (SK-BR-3 [27]): 8.9 µM | IC50 (786-0 [1]): > 10 µM | solubility (physchem [28]): < 0.5 µg/mL | remaining at 0.5 h (in vitro): < 10% | solubility at 24 h (physchem [13]): < 0.5 µg/mL

CC(=O)c1[nH]c2ccc(F)cc2c1-c1cn(CC2CCN(CCNS(=O)(=O)c3ccc(-c4ccccc4O)cc3)CC2)nn1
IC50 (786-0 [1]): 0.9 µM | remaining at 0.5 h (in vitro): 46% | solubility at 24 h (physchem [13]): 18.5 µg/mL (≈ 30 µM)

CC(=O)c1[nH]c2ccc(F)cc2c1-c1cn(CC2CCN(CCNS(=O)(=O)c3ccc(-c4c(O)cccc4F)c(Cl)c3)CC2)nn1
IC50 (786-0 [1]): > 10 µM | solubility at 24 h (physchem [13]): < 0.5 µg/mL

COc1cccc(F)c1-c1ccc(S(=O)(=O)NCCN2CCC(Cn3cc(-c4c(C(C)=O)[nH]c5ccc(F)cc45)nn3)CC2)cc1
IC50 (786-0 [1]): > 10 µM | remaining at 0.5 h (in vitro): 48% | solubility at 24 h (physchem [13]): 5.4 µg/mL (≈ 8.32 µM)

CC(C)Cc1ccc(S(=O)(=O)NCCN2CCC(Cn3cc(-c4c[nH]c5ccccc45)nn3)CC2)cc1
IC50 (786-0 [1]): 5.9 µM | remaining at 0.5 h (in vitro): 18% | solubility at 24 h (physchem [13]): 2.7 µg/mL (≈ 5.19 µM)

CC(=O)c1[nH]c2ccc(F)cc2c1-c1cn(CC2CCN(CCNS(=O)(=O)c3ccc(-c4c(O)cccc4F)c(C)c3)CC2)nn1
IC50 (786-0 [1]): 6.6 µM | remaining at 0.5 h (in vitro): 27% | solubility at 24 h (physchem [13]): 3.4 µg/mL (≈ 5.24 µM)

Cn1nnc2c(C(N)=O)ncn2c1=O [TEMOZOLOMIDE]
inhibition in vivo at 20 mg/kg (animal or person [29]): 67%
